# Results reported in patent US20140194477A1, “KINASE PROTEIN BINDING INHIBITORS” (Roswell Park Cancer Institute, priority 2011, published 2014).
# Key:
# [1] = 7-day single-dose MTD toxicologic study of Y15, oral gavage, CD-1 mice; format: in vivo; conditions: both sexes, CD-1, mouse, in vivo, po
# Protocol: (§1) • A 7-day, single-dose maximum tolerated dose toxicologic study of the chemical 1,2,4,5-Benzenetetramine tetrahydrochloride (Y-15) was performed in CD-1 mice.
# (§2) • The chemical 1,2,4,5-Benzenetetramine tetrahydrochloride (Y-15) was the test article. Y-15 is a chemical grade compound available through Sigma-Aldrich. The test article was prepared in phosphate buffered saline (PBS). The test article was prepared by the sponsor and delivered to the study director prior to the study. The test article was stored in the freezer (0° C.), protected from light.
# (§3) • The CD-1 [Hsd:ICR(CD-1)] albino mouse was used. The CD-1 mouse is conventionally used in toxicity tests to provide information on which human hazards can be judged, and is one of the choices of species preferred by regulatory agencies. Mice were obtained from Harlan (Frederick, Md.). • Mice were acclimated for a minimum of 2 days prior to testing. […] mice, nulliparous and non-pregnant, were used. Normal weight gain, appearance and behavior were factors used to select healthy mice for testing. Only naive animals were used. Mice were 4-7 weeks old, weighed 22-34 grams (males) and 19-24 grams (females), and were in good health at the start of the study. Mice were 5-8 weeks old, weighed 23-36 grams (males) and 20-25 grams (females) at the conclusion of the study. • Mice were randomly assigned to 8 experimental groups consisting of 3 males and 3 females which received increasing doses of the chemical Y-15. Mice were identified via cage cards, tail markings, and ear punch. Mouse identification codes contained information regarding experimental group (A=15 mg/kg dose group, B=30 mg/kg dose group, C=60 mg/kg dose group, D=90 mg/kg dose group, E=120 mg/kg dose group, F=150 mg/kg dose group, G=200 mg/kg dose group, and H=250 mg/kg dose group), sex (M=male, F=female), and animal number (1-3). Mice were fed autoclaved Harlan-Teklad sterilizable 7012 mouse/rat diet ad libitum. The feed is routinely analyzed by the manufacturer for nutritional components and environmental contaminants. Tap water acidified to a pH of 2.5-3.5 was provided in autoclaved water bottles ad libitum. Municipal water supply is analyzed by the Bureau Veritas Consumer Product Services of Buffalo, NY on an annual basis. […]
# (§4) • The test article 1,2,4,5-Benzenetetramine tetrahydrochloride (Y15) was prepared in PBS and administered orally (PO) via orogastric gavage as a single dose on day 0 in the morning. […] Dosages were calculated on a “per mouse” basis, not on a mg/kg basis. […]
# CD-1 mice [2] = experiment: as above; format: in vivo
# Protocol: as §1, §2, §3, §4
# FAK = FAK (Homo sapiens, UniProt Q05397); experiment: FAK Y397 phosphorylation; format: biochemical; conditions: in vitro
# FAK, sequence (Q05397 whole entry): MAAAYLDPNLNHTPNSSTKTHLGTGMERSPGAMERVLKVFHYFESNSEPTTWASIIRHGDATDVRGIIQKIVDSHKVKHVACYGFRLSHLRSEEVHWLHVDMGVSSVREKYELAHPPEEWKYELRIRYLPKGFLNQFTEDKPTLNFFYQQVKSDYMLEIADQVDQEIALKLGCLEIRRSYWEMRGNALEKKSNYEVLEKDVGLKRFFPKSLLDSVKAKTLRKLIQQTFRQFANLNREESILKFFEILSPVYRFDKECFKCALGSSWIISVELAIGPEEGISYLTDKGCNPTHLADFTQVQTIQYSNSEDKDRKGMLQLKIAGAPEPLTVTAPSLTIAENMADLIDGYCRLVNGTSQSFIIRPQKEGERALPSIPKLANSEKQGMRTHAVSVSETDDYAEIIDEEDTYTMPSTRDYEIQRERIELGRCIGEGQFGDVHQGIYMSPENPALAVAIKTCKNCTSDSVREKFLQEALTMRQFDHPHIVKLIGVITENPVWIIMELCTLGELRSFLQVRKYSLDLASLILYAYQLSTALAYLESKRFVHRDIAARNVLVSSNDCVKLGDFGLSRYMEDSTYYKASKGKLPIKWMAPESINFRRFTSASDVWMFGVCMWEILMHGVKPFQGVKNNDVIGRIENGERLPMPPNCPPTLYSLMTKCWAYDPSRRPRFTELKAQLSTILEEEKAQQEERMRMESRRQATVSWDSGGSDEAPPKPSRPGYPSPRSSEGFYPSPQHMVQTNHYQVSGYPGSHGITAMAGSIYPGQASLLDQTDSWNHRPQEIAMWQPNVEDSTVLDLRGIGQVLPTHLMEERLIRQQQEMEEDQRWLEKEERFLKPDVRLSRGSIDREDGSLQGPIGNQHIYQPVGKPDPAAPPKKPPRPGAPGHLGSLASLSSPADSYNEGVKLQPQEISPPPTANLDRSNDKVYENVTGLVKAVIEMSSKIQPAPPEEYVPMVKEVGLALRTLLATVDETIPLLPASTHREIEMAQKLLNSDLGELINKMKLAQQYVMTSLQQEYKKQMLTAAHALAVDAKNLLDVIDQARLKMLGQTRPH
# tumor = experiment: Tumor growth in vivo
# cancer cell = experiment: Cancer cell viability in vitro; format: cell-based
# [3] = 7-day multiple-dose MTD toxicologic study of Y15, oral gavage, CD-1 mice; format: in vivo; conditions: both sexes, CD-1, mouse, in vivo, oral gavage in mice, daily for 7 days
# Protocol: (§5) • A 7-day, multiple-dose maximum tolerated dose toxicologic study of the chemical 1,2,4,5-Benzenetetramine tetrahydrochloride (Y15) was performed in CD-1 mice.
# (§6) • The chemical 1,2,4,5-Benzenetetramine tetrahydrochloride (Y15) was the test article. Y-15 is a chemical grade compound available through Sigma-Aldrich, The test article was prepared in phosphate buffered saline (PBS). The test article was prepared by the sponsor and delivered to the study director prior to the study. The test article was stored in the freezer (0° C.), protected from light.
# (§7) • The CD-1 [Hsd:ICR(CD-1)] albino mouse was used. […] Mice were obtained from Harlan (Frederick, Md.). • Mice were acclimated for a minimum of 2 days prior to testing. 20 male and 20 female mice, nulliparous and non-pregnant, were used. Normal weight gain, appearance and behavior were factors used to select healthy mice for testing. Only naive animals were used. Mice weighed 22-35 grams (males) and 20-27 grams (females), and were in good health at the start of the study. Mice were randomly assigned to 4 experimental groups (controls, low-dose, medium-dose, and high-dose) consisting of 5 males and 5 females. Mice were identified via cage cards, tail markings, and ear punch. Mouse identification codes contained information regarding experimental group (C=control, L=low-dose, M=medium-dose, H=high-dose), sex (M=male, F=female), and animal number (1-5). […] Tap water acidified to a pH of 2.5-3.5 was provided in autoclaved water bottles ad libitum. […] Environmental conditions in the animal housing room were maintained at an ambient temperature of 70±3°, relative humidity of 30-70%, and a 12:12 light-dark cycle. Animal housing rooms were ventilated with 100% fresh, HEPA filtered air with 10-15 air changes per hour.
# (§8) A 7-day multiple-dose MTD toxicology study was performed.
# (§9) The test article Y-15 was prepared in PBS and administered orally (PO) via orogastric gavage as a single daily dose on days 0-6 in the morning. The test article (Y-15) was diluted with the control article (PBS) so as not to exceed a volume of 100 μL. The test article was stored in the freezer (0° C.) and allowed to thaw and come to room temperature prior to administration. Mice were randomly allocated into 4 groups (controls, low-dose, medium-dose, and high-dose) consisting of 5 males and 5 females. Dosages were calculated on a “per mouse” basis, not on a mg/kg basis. […] Mice in the high-dose group received the equivalent of a 300 mg/kg dose for a 20 g mouse (6 mg). Mice in the control group received 100 μL of the control article (PBS). Groups received the following doses, drug concentrations, and gavage volumes, as outlined in Table 2:
# CD-1 mice [4] = experiment: as above; format: in vivo
# Protocol: as §5, §6, §7, §8, §9
smiles,measurement,setting,value
"Cl.Cl.Cl.Cl.Nc1cc(N)c(N)cc1N [Y15, 1,2,4,5-benzenetetraamine tetrahydrochloride]",MTD at 7 days,[1],200 mg/kg
same,maximal tolerated dose (summary statement),"CD-1 mice [2]; delivery once /week, duration 7 days",250 mg/kg
same,"toxicity findings, other dose groups","CD-1 mice [2]; single oral gavage dose, 15-200 mg/kg groups","no mortality, adverse clinical signs, or decrement in body weight greater than 10%"
same,"mortality, highest dose group","CD-1 mice [2]; single oral gavage dose, group H 250 mg/kg",mortality was seen
same,Y397-phosphorylation of FAK in vitro,FAK,directly and specifically decreases
same,tumor growth in vivo,tumor,blocks tumor growth in vivo
same,cancer cell viability in vitro,cancer cell,inhibits cancer cell viability in vitro
same,MTD at 7 days,[3],≥ 100 mg/kg
same,NOAEL at 7 days,[3]; read-out: no observable adverse effects level (NOAEL),100 mg/kg
same,maximal tolerated dose (summary statement),"CD-1 mice [4]; delivery 5 days/week, duration 7 days",200 mg/kg
same,"toxicity findings, medium-dose group","CD-1 mice [4]; oral gavage daily days 0-6, 100 mg/kg","no mortality, clinical signs of toxicity, or decrement in mean body weight"
same,"toxicity findings, high-dose group","CD-1 mice [4]; oral gavage daily days 0-6, 200 mg/kg","weight loss, severe clinical signs of abdominal distention, and mortality due to gastrointestinal dilatation"
